Data from patent publication US11000039B2, “Composition for controlling nematode comprising grammicin compound as effective ingredient and uses thereof” (INDUSTRY FOUNDATION OF CHONNAM NATIONAL UNIVERSITY, priority 2016, dated 2021).
≈ marks a conversion by molar mass, not a printed value.

Columns and labels:
[1] = system: sweet potato root knot nematode (M. incognita) 2nd stage juveniles; assay: organism not typed; settings: for LC50: Meloidogyne incognita, read-out: LC50 M. incognita 72 h
Protocol: The three layers were finally applied at concentrations of 15.6, 31.3, 62.5, 125, 250, 500, or 1,000 μg/ml. As a control group, treatment with 1% acetone and methanol was carried out, and, after the treatment, the 96-well plate was shaken for 30 seconds so that the test compound is mixed well. Thereafter, the plate was added to a plastic container having relative humidity of 100% and stored at room temperature. To obtain eggs of a root knot nematode from roots of tomato infected by root knot nematode, plant roots were washed with tap water to remove adhering soil and cut into 1 cm pieces. Eggs were extracted in 0.5% sodium hypochlorite solution for 1 min and collected by passage through 45 and 25 μm sieves. Second-stage juveniles (J2) were allowed to hatch in modified Baermann funnels at 20° C.
Ninety nine μl of 50 2nd stage juveniles of sweet potato root knot nematode were added to each well of a 96-well plate, and then, according to a treatment of 1% solvent extract, the final volume per well was adjusted to 100 μl. […] 72 Hours after the treatment with a test compound, mortality was determined under an optical inverted microscope by using the equation shown below. As for the mortality, the linear nematode showing no movement was taken as dead nematode, the nematode showing movement of flexible curve was taken as live nematode, and the mortality was examined using the following equation. Mortality (%)=[Mortality percentage in treatment−mortality percentage of negative control/(100−mortality percentage in negative control)]×100
To determine the mortality and activity of inhibiting egg hatching of the purified compound, the compound was dissolved in methanol and trans-cinnamaldehyde as a control agent was dissolved in ethanol and used for the experiment. […] Furthermore, the activity of inhibiting egg hatching of sweet potato root knot nematode (M. incognita) was also examined at the same concentration. As a non-treatment group, 1% methanol and ethanol were used, and, according to the method explained above, the mortality and activity of inhibiting egg hatching were examined. The experiments were carried out in triplicate. The mortality was determined 3 days after the treatment of a test compound while the rate of inhibiting egg hatching was determined 14 days after the treatment of a test compound. The rate of inhibiting egg hatching was calculated based on the following equation. Egg hatching inhibitory activity (%)=[(C−T)/C]×100,

[2] = system: carrot root knot nematode (M. hapla) 2nd stage juveniles; assay: Mortality against 2nd stage juveniles of carrot root knot nematode; parameters: species or system Meloidogyne hapla; settings: 72 h; for LC50: 2nd stage juveniles
[3] = system: eggs of sweet potato root knot nematode (M. incognita); assay: Egg hatching inhibitory activity against sweet potato root knot nematode; parameters: species or system Meloidogyne incognita; settings: 336 h, 14 days after treatment, read-out: Rate of inhibiting egg hatching; for inhibition at 3.1 µg/mL: 3.1 μg/ml; for inhibition at 25 µg/mL: 25 μg/ml
Protocol: The experiments were carried out in triplicate. […] Egg hatching inhibitory activity (%)=[(C−T)/C]×100,
C=Egg hatching rate of control group*, T=Egg hatching rate of treatment group *Egg hatching rate (%)=Number of juveniles/[Number of egg+Number of juveniles]×100

colon cancer cell SW.71 = assay: MTT cell viability assay (human cytotoxicity); settings: for Cytotoxicity, in words: test concentration 0.1 to 10 μg/ml; for Cytotoxicity, in words / Cell viability compared to the non-treatment group: 24 hours
Protocol: The colon cancer cell SW.71 as a cell line used for the experiment was kept in −196° C. liquid nitrogen tank until use. The colon cancer cell SW.71 was added, in RPMI-1640 (Life Technologies Inc., USA) medium, with 10% FBS (fetal bovine serum, Gibco) and 1% penicillin-streptomycin, cultured for 72 hours in an incubator at condition of 37° C., 5% CO2, and then used. As for the MTT reagent, thiazolyl blue tetrazolium bromide was used, and, after dissolving it in PBS (phosphate buffer saline) to have final concentration of 5 mg/ml, it was kept at 4° C. under light-shielding condition. The colon cancer cell SW.71 was inoculated, in an amount of 130 μl, to a 96-well plate to have concentration of 5×10^3 or 1×10^4 cells/well. […] After culturing the cells for 24 hours, the MTT solution was added in an amount of 14.5 μl for each well followed by culture for 2 hours or longer at 37° C. The medium was carefully removed and DMSO was added in an amount of 108.5 μl per well to terminate the reaction followed by stirring using a plate shaker for 30 minutes at room temperature, dark conditions. Thereafter, by using a microplate ELISA reader, absorbance at a wavelength of 540 nm was measured, and the cell viability after culture for 24 hours was examined. For the non-treatment group, 1% MeOH was added to a DMEM medium. All the experiments were repeated in triplicate.

Compound: O=C1C=C2C(O)C=COC2O1 (stereo not shown) [grammicin]
- Mortality against root knot nematodes, in words (summary) [1]: very high mortality
- mortality at 12.5 µg/mL ([1]; 72 h): 52.8%
- mortality at 50 µg/mL ([1]; 72 h): 100%
- LC50 ([1]; 72 h): 15.9 µg/mL (≈ 103 µM)
- mortality at 25 µg/mL ([2]; 25 μg/ml, 3 days after treatment): 62.4%
- mortality at 50 µg/mL ([2]; 50 μg/ml, 3 days after treatment): 100%
- LC50 [2]: 3.12 µg/mL (≈ 20.2 µM)
- inhibition at 3.1 µg/mL [3]: 68.2%
- inhibition at 25 µg/mL [3]: 91.4%
- Cytotoxicity for colon cancer cells, in words (summary) (colon cancer cell SW.71; at a test concentration): no toxicity
- Cytotoxicity, in words (colon cancer cell SW.71; 1×10^4 cells/well): no cytotoxicity
- Cytotoxicity, in words (colon cancer cell SW.71; 5×10^3 cells/well): no cytotoxicity

Compound: O=C1C=C2C(=CCOC2O)O1 (stereo not shown) [patulin]
- Mortality against root knot nematodes, in words (summary) [1]: almost no activity
- mortality at 100 µg/mL [1]: 38.7%
- Cell viability compared to the non-treatment group (colon cancer cell SW.71; 0.1 μg/ml, 1×10^4 cells/well): 66.2%
- Cell viability compared to the non-treatment group (colon cancer cell SW.71; 0.1 μg/ml, 5×10^3 cells/well): 72.2%
- Cell viability compared to the non-treatment group (colon cancer cell SW.71; 0.5 μg/ml, 1×10^4 cells/well): 80.5%
- Cell viability compared to the non-treatment group (colon cancer cell SW.71; 0.5 μg/ml, 5×10^3 cells/well): 72.1%
- Cell viability compared to the non-treatment group (colon cancer cell SW.71; 1 μg/ml, 1×10^4 cells/well): 75.3%
- Cell viability compared to the non-treatment group (colon cancer cell SW.71; 1 μg/ml, 5×10^3 cells/well): 42.1%
- Cell viability compared to the non-treatment group (colon cancer cell SW.71; 5 μg/ml, 1×10^4 cells/well): 58.4%
- Cell viability compared to the non-treatment group (colon cancer cell SW.71; 5 μg/ml, 5×10^3 cells/well): 43.5%
- Cell viability compared to the non-treatment group (colon cancer cell SW.71; 10 μg/ml, 1×10^4 cells/well): 27.6%
- Cell viability compared to the non-treatment group (colon cancer cell SW.71; 10 μg/ml, 5×10^3 cells/well): 31.4%

Compound: O=C/C=C/c1ccccc1 [trans-cinnamaldehyde]
- LC50 ([1]; 72 h): 18.3 µg/mL (≈ 139 µM)
- LC50 [2]: 8.56 µg/mL (≈ 64.8 µM)
- inhibition at 3.1 µg/mL [3]: 31.3%
- inhibition at 25 µg/mL [3]: 65%
